Experimental data from patent US20020102533A1, “Hepatitis C protease exosite for inhibit or design” (priority 2000, published 2002).
Entries after “also recorded” stand apart in the source; their conditions may differ. Where a SMILES comes first, the peptide text is derived from it. [ ]: non-standard residue; d: D form. Dip = N[C@H](C(=O)O)C(c1ccccc1)c1ccccc1; Cha = N[C@@H](CC1CCCCC1)C(=O)O

What was measured:
[1] = target: T1, HCV NS3 protease, genotype 1a (Hepatitis C virus genotype 1a, UniProt P26664); type: biochemical
T1 construct: NS3 protease catalytic domain (amino acids 1 to 192); MGAQH expression leader (5 aa), or alternatively the 15 aa His tag […]; made in house; host or cells: E. coli BL21 (DE3)
Description: Endpoint HPLC based HCV protease assay: HCV protease (5 nM) was incubated in 50 mM Tris pH 7.5, 0.1% maltoside, 5 mM DTT and appropriate amounts of glycerol, NS4A peptide, and substrate. Routine assays were 100 μl in volume containing 15% or 50% glycerol, 5.0 μM NS4A peptide and 5.0 μM substrate. Reactions were run at room temperature (˜22° C.) and quenched by the addition of 4 μl of 10% TFA before 10% of the substrate was consumed. Incubation times were 20 minutes for the ester substrate (Peptide Substrate A) and 80 minutes for the P6-P7′ amide substrate (Peptide Substrate B). […] Incubation times were 90 min. Samples, 50 μl, were injected onto an Hewlett Packard 1090 Liquid Chromatograph containing a Dynamax-60A C18 column. The column was eluted with a linear gradient from 10% acetonitrile to 45% acetonitrile in water. All solvents contained 0.1% TFA. A flow rate of 1 ml/min was used. […] The product peaks were detected by fluorescence excitation at 350 nm and emission at 500 nm.
Footnote a for Table 1 references the assay condiditions: 1) Substrate A=P6-P3′, HCV protease (4.0 nM) was incubated with various concentrations of truncated analogs of Q9692 in 50 mM Tris buffer, pH 7.0, 15% glycerol, 0.1% maltoside, 5 mM DTT and 10 μM NS4A peptide in a 96-well microtiter plate at room temperature. After 15 minutes catalysis was initiated by the addition of Ac-D-E-D(EDANS)-E-E-Abuψ[COO]-A-S-K(DABCYL)—NH2 (final concentration 5.0 μM in a total reaction volume of 200 μl). Enzymatic activity was monitored by measuring the increase in fluorescence with time on a Perkin Elmer LS50B luminescence spectrometer (excitation 350 nm, emission 500 nm, both slits 10 nm). […] Assays were 100 μl in volume, reactions were run at room temperature (˜22 C) for 80 minutes (<10% of the substrate was consumed). The addition of 4 μl of 10% TFA quenched the reactions. Quantitation of hydrolysis products was determined by measuring fluorescent peak areas following HPLC. Products were detected by excitation at 350 nm and measuring emission at 500 nm. Aliquots (50 μl) of quenched enzymatic reactions were injected on an Hewlett Packard 1090 HPLC equipped with a ¼ inch Dynamex 60A C18 column. A linear gradient from 10% acetonitrile:H2O to 45% acetonitrile:H2O was run over a period of 15 min at a flow rate of 1.0 ml/min. All solvents contained 0.1% TFA.
Comparison of the effects of Q9692 on the hydrolysis of a P6-P3′ ester substrate (FIG. 2A) and a P6-P7′ substrate (FIG. 2B) and P6-P3′ amide substrate (FIG. 2C) were determined. For substrates A and B1 Concentrations of Q9692 are 0 (circles), 1 μM (squares), 2 μM (diamonds) and 4 μM (triangles). Assay conditions: HCV protease (5 nM) was incubated in 50 mM Tris buffer at pH 7.0, 15% glycerol, 0.1% maltoside, 5 mM DTT, 10 μM NS4A peptide, and specified concentration of substrate. Assays were 100 μl in volume and reactions were run at room temperature (22 C) and quenched by the addition of 4 μl of 10% TFA before 10% of the substrate was consumed. Incubation times were 20 minutes for the ester substrate and 80 minutes for the amide substrate. Hydrolysis products were quantitated by measuring fluorescent peak areas following HPLC and detection by excitation at 350 nm and measuring emission at 500 nm. Aliquots (50 μl) of quenched enzymatic reactions were injected on an Hewlett Packard 1090 HPLC equipped with a ¼ inch Dynamex 60A C18 column.

HCV protease (NS3) = target: T2, HCV protease (NS3) (Hepatitis C virus genotype 1a, UniProt P26664); type: binding
T2 construct: NS3 protease catalytic domain (amino acids 1 to 192); MGAQH expression leader (5 aa), or alternatively the 15 aa His tag MRGSHHHHHHMGAQH; made in house; host or cells: E. coli BL21 (DE3)
Description: Intrinsic fluorescence studies: Assays were conducted in 0.5 ml fluorescent cuvettes (0.4 ml total volume). […] Fluorescence spectra were obtained by exiting at 280 nm (10 nm slit) and scanning the emission profile from 300 to 400 nm (10 nm slit) at 1 nm s^−1.
Fluorescence spectrum of HCV protease (0.45 μM) in 50 mM Tris buffer, pH 7.0, containing 15% glycerol, and 0.10% maltoside were measured over a range of 300-400 nm using an excitation wavelength of 280 nm. Both excitation and emission slit widths were 10 nm and the scan rate was 1.0 nm sec^−1.

HCV protease = HCV protease (Hepatitis C virus genotype 1b, UniProt P26663); details: substrate Ac-[…](Edans)—NH2; cited from earlier work

## CC(=O)N[C@@H](CC(=O)O)C(=O)N[C@@H](CCC(=O)O)C(=O)N[C@H](C(=O)N[C@@H](CCC(=O)O)C(=O)N[C@@H](CC1CCCCC1)C(=O)N[C@@H](CS)C(=O)O)C(c1ccccc1)c1ccccc1 [Q9692, Ac-Asp-Glu-Dpa-Glu-Cha-Cys—OH] (Ac-DE[Dip]E[Cha]C-OH)
[1]; 5 μM substrate spanning P6-P7′
  Dixon plots of 1/V versus Q9717 concentration: intersecting lines
[1]; P6-P7′ substrate, double reciprocal plots
  mode of action: competitive inhibitor
[1]; substrate B
  (S = P6-P7′) Inhibition (+) / Activation (−): +
HCV protease (NS3); 5.0 μM added after 12.5 μM NS4a
  further increase in intrinsic fluorescence: 70%
HCV protease (NS3); in the absence of NS4a
  effect on fluorescence spectrum: little effect
HCV protease (NS3); in the presence of NS4a
  effect on intrinsic fluorescence: near doubling of intrinsic fluorescence; also recorded: nearly doubles the intrinsic fluorescence; also recorded: large increase in fluorescence
HCV protease
  Ki: 50 nM
